Drawing on ChEMBL document CHEMBL1133832, “Synthesis of the first example of a C2-C3/C2'-C3'-endo unsaturated pyrrolo[2,1-c][1,4]benzodiazepine dimer” (Bioorg Med Chem Lett, 2001), this text covers IC50 and RF for 3 molecules.

Experiment [1] relates to A2780. Put plainly: Dose of required to inhibit growth of human ovarian carcinoma (A2780) cell line with compound free controls as measured by the sulforhodamine B growth delay assay. In kind it is functional, cell-based.
A short description of experiment [2]: Resistance factor (IC50 resistant/ parent). The class given is functional.
For experiment [3], the system named is A2780. Put plainly: Dose of required to inhibit growth of cisplatin resistant human ovarian carcinoma (A2780 cisR) cell line with compound free controls as measured by the sulforhodamine B growth delay assay. In kind it is functional, cell-based.

SMILES strings stand for the structures.

Consider `C=C1C[C@H]2C=Nc3cc(OCCCOc4cc5c(cc4OC)C(=O)N4CC(=C)C[C@H]4C=N5)c(OC)cc3C(=O)N2C1` [SJG-136], for which the IC50 (commonly the concentration that gives 50% inhibition) in experiment [1] was 0.0225 nM; in experiment [3], 0.024 nM. Further, the RF in experiment [2] was 1.
In the case of `COC(=O)CC1=CN2C(=O)c3cc(OC)c(OCCCOc4cc5c(cc4OC)C(=O)N4C=C(CC(=O)OC)C[C@H]4C=N5)cc3N=C[C@@H]2C1`, the IC50 in experiment [1] was 5.4 nM; in experiment [3], 58 nM. The RF in experiment [2] was determined as 10.7.
As for `COc1cc2c(cc1OCCCOc1cc3c(cc1OC)C(=O)N1CCC[C@H]1C=N3)N=C[C@@H]1CCCN1C2=O`, in experiment [2], the RF came to 29.2.
